# In US4620014A, “2-furylbutyrolactones and methods for using same” (priority 1983, dated 1986):
# Values joined by “and” are separate entries in the source; they are usually repeats but may differ in a detail not shown here. Equal values may be shown once. Read-outs that look alike come from different tables or passages of the source.
# Assays:
# [1] = system: spleen lymphocytes of BSA-immunized C57BL/6 mice
# Excerpt: The effect of the compounds of this invention on the immune response to specific antigens involves immunization of mice with specific anitgens such as bovine serum albumin (BSA) or keyhole limpet hemocyanin (KLH). Following immunization, it is possible to assess the cell-mediated or humoral (antibody) immune response to these antigens by various methods:
# (1) Lymphocyte stimulation assays can be performed using varying concentrations of the specific antigens as mitogens in the lymphocyte stimulation microculture system described above. The only difference is that the incubation period is extended to five days instead of three as for the polyclonal mitogens.
# Mice of the C57BL/6 strain are given i.p. injections of either 50, 100, 200 or 400 mg/kg of Cpd. 1 or buffer for twelve days (days 1-12). An antigen, bovine serum albumin (BSA), is administered intraperitoneally with Freund's Complete Adjuvant (FCA) on days 1, 7 and 14. Blood samples are taken for assay of the antibody response on days 0, 5, 13, and 19.
# [2] = system: spleen lymphocytes from C57BL/6 mice; test: In vitro lymphocyte stimulation assay, C57BL/6 spleen lymphocytes; format: cell-based, mouse
# Protocol: The purpose of this assay is to challenge lymphocytes in microcultures with one or more polyclonal mitogens at concentrations that will induce mitogenesis within 72 hours of stimulation.
# In the mouse model, spleens are removed from different strains of mice and the spleen cells are teased free and suspended in RPMI-1640 tissue culture medium at a concentration of usually 1×10^7 ml. These cells are dispensed at a concentration of 5.0×10^5 cells per microculture well in a 96 well flat bottom 96 well tissue culture plate. All testing of the compounds of this invention or mitogens are done in replicates of 10. The cells are then treated with PHA, Con-A, specific antigens, or buffer only. If in vitro testing is done, varying concentrations of the compounds of this invention or buffer only are added to the cells as well. After treatment with the mitogens and/or compounds of this invention, the cells are incubated for 72 hours. The response of these cells to mitogens and/or the compounds of this invention is assessed using ^14 C-thymidine labeling on the fourth day at a concentration of 0.01 μCi/well. The labeled cells are harvested using a lymphocyte harvestor and placed onto fibrous paper discs. A scintillation cocktail is added to vials contaning the discs and the results are obtained using a LKB-liquid scintillation counter (Model 1216/Rackbeta II). The data is expressed as a ratio of the cpm of the mitogen stimulated group to the control (non-mitogen) treated group=lymphocyte stimulation index (LSI).
# The lymphocyte stimulation assay may be performed directly on spleen cells obtained from various strains of mice not treated with the compounds of this invention or on lymphocytes obtained from […]. […] Alternatively, the mice may be treated in vivo with the compounds of this invention by intraperitoneal multi-dose schedules, followed by sacrifice and harvesting spleen lymphocytes. These cells are then tested for their response to polyclonal mitogens or specific antigens used to immunize the mice. In this sytem however, no additional compound is added to the in vitro lymphocyte stimulation assay system.
# An in vitro lymphocyte stimulation assay is performed directly on normal spleen lymphocytes removed from five normal C57BL/6 mice, using concentrations of Cpd. […] Following three days of incubation the assay is completed.
# An in vitro lymphocyte stimulation assay was performed using spleen lymphocytes from normal C57BL/6 mice. The lymphocytes were treated with either 1, 5, 10, 50, or 100 μg/well of Cpd. 1 or buffer.
# Cpd. 2 was tested using normal spleen lymphocytes from C57BL/6 mice. A lymphocyte stimulation assay was conducted using either 1, 5, 10, 50, or 100 μg/well […] or just buffer.
# Spleen cells from C57BL/6 mice were treated, in vitro, with the crystallizing reagents, succinic acid and succinimide. Since these compounds are spontaneously released from the molecular complex in solution at a molar ratio of 2 moles of Cpds. 1, 2, or 3 per mole of the crystalline reagent, these reagents were treated in the lymphocyte stimulation assay at proper molar concentrations.
# The compound of example 3, Cpd. 3, was used to treat C57BL/6 spleen lymphocytes in vitro. The lymphocytes were treated with either 1, 5, 10, 50, or 100 μg/well of Cpd. 3 or just buffer and then a lymphocyte stimulation assay was performed.
# CD-1 mice = details: 14 days
# Protocol: (§1) Single oral dose LD50 in CD-1 mice and CD rats, obtained from Charles River U.K. Ltd., for Cpd. 1 is determined. […] Cpd. 1, dissolved in buffer, or just buffer is administered orally and the mice and rats are observed for 14 days after dosing. After 14 days, the animals are sacrified and necropsy is performed to check for gross evidence of toxicity.
# CD rats = details: 14 days
# Protocol: as §1
smiles,measurement,setting,value
Cc1ccc(C2(O)C(=O)OC3C(O)COC32O)o1.Cc1ccc(C2(O)C(=O)OC3C(O)COC32O)o1.O=C1CCC(=O)O1 (stereo not shown) [Cpd. 1],Lymphocyte Stimulation Index,"[1]; 50 mg/kg i.p., day 13, BSA 0 μg/well",16.5
same,Lymphocyte Stimulation Index,"[1]; 50 mg/kg i.p., day 13, BSA 0.01 μg/well",19.9
same,Lymphocyte Stimulation Index,"[1]; 50 mg/kg i.p., day 13, BSA 0.1 μg/well",23.1
same,Lymphocyte Stimulation Index,"[1]; 50 mg/kg i.p., day 13, BSA 0.5 μg/well",22.9
same,Lymphocyte Stimulation Index,"[1]; 50 mg/kg i.p., day 13, BSA 1 μg/well",18.2
same,Lymphocyte Stimulation Index,"[1]; 50 mg/kg i.p., day 19, BSA 0 μg/well",.26
same,Lymphocyte Stimulation Index,"[1]; 50 mg/kg i.p., day 19, BSA 0.01 μg/well",2.33
same,Lymphocyte Stimulation Index,"[1]; 50 mg/kg i.p., day 19, BSA 0.1 μg/well",2.27
same,Lymphocyte Stimulation Index,"[1]; 50 mg/kg i.p., day 19, BSA 0.5 μg/well",2.37
same,Lymphocyte Stimulation Index,"[1]; 50 mg/kg i.p., day 19, BSA 1.0 μg/well",2.63
same,DNA synthesis compared to controls,"[1]; 50 mg/kg, day 13",significant stimulation of DNA synthesis
same,DNA synthesis effect,"[1]; 50 mg/kg, day 19",waned
same,Lymphocyte Stimulation Index,"[1]; 100 mg/kg i.p., day 13, BSA 0 μg/well",3.22
same,Lymphocyte Stimulation Index,"[1]; 100 mg/kg i.p., day 13, BSA 0.01 μg/well",9.8
same,Lymphocyte Stimulation Index,"[1]; 100 mg/kg i.p., day 13, BSA 0.1 μg/well",11.9
same,Lymphocyte Stimulation Index,"[1]; 100 mg/kg i.p., day 13, BSA 0.5 μg/well",12.3
same,Lymphocyte Stimulation Index,"[1]; 100 mg/kg i.p., day 13, BSA 1 μg/well",10.2
same,Lymphocyte Stimulation Index,"[1]; 100 mg/kg i.p., day 19, BSA 0 μg/well",4.1
same,Lymphocyte Stimulation Index,"[1]; 100 mg/kg i.p., day 19, BSA 0.01 μg/well",3.79
same,Lymphocyte Stimulation Index,"[1]; 100 mg/kg i.p., day 19, BSA 0.1 μg/well",2.68
same,Lymphocyte Stimulation Index,"[1]; 100 mg/kg i.p., day 19, BSA 0.5 μg/well",2.03
same,Lymphocyte Stimulation Index,"[1]; 100 mg/kg i.p., day 19, BSA 1.0 μg/well",.26
same,Lymphocyte Stimulation Index,"[1]; 200 mg/kg i.p., day 13, BSA 0 μg/well",10.6
same,Lymphocyte Stimulation Index,"[1]; 200 mg/kg i.p., day 13, BSA 0.01 μg/well",14.1
same,Lymphocyte Stimulation Index,"[1]; 200 mg/kg i.p., day 13, BSA 0.1 μg/well",15.8
same,Lymphocyte Stimulation Index,"[1]; 200 mg/kg i.p., day 13, BSA 0.5 μg/well",13.8
same,Lymphocyte Stimulation Index,"[1]; 200 mg/kg i.p., day 13, BSA 1 μg/well",14.0
same,Lymphocyte Stimulation Index,"[1]; 200 mg/kg i.p., day 19, BSA 0 μg/well",0.42
same,Lymphocyte Stimulation Index,"[1]; 200 mg/kg i.p., day 19, BSA 0.01 μg/well",2.94
same,Lymphocyte Stimulation Index,"[1]; 200 mg/kg i.p., day 19, BSA 0.1 μg/well",2.82
same,Lymphocyte Stimulation Index,"[1]; 200 mg/kg i.p., day 19, BSA 0.5 μg/well",2.56
same,Lymphocyte Stimulation Index,"[1]; 200 mg/kg i.p., day 19, BSA 1.0 μg/well",2.12
same,Lymphocyte Stimulation Index,"[1]; 400 mg/kg i.p., day 13, BSA 0 μg/well",10.9
same,Lymphocyte Stimulation Index,"[1]; 400 mg/kg i.p., day 13, BSA 0.01 μg/well",13.7
same,Lymphocyte Stimulation Index,"[1]; 400 mg/kg i.p., day 13, BSA 0.1 μg/well",12.8
same,Lymphocyte Stimulation Index,"[1]; 400 mg/kg i.p., day 13, BSA 0.5 μg/well",12.3
same,Lymphocyte Stimulation Index,"[1]; 400 mg/kg i.p., day 13, BSA 1 μg/well",13.8
same,Lymphocyte Stimulation Index,"[1]; 400 mg/kg i.p., day 19, BSA 0 μg/well",5.0
same,Lymphocyte Stimulation Index,"[1]; 400 mg/kg i.p., day 19, BSA 0.01 μg/well",3.26
same,Lymphocyte Stimulation Index,"[1]; 400 mg/kg i.p., day 19, BSA 0.1 μg/well",2.89
same,Lymphocyte Stimulation Index,"[1]; 400 mg/kg i.p., day 19, BSA 0.5 μg/well",1.94
same,Lymphocyte Stimulation Index,"[1]; 400 mg/kg i.p., day 19, BSA 1.0 μg/well",1.04
same,"Lymphocyte Stimulation Index, Con-A",[2]; 1 μg/well in vitro,178 and 123
same,"Lymphocyte Stimulation Index, PHA",[2]; 1 μg/well in vitro,53.8 and 80.4
same,"Lymphocyte Stimulation Index, Con-A",[2]; 5 μg/well in vitro,162
same,"Lymphocyte Stimulation Index, Control (no mitogen)",[2]; 5 μg/well in vitro,1.8
same,"Lymphocyte Stimulation Index, PHA",[2]; 5 μg/well in vitro,157
same,"mitogenesis, PHA and Con-A",[2]; 10 μg/well (Example 12),significant suppression
same,"Lymphocyte Stimulation Index, Con-A",[2]; 50 μg/well in vitro,3.78
same,"Lymphocyte Stimulation Index, Control (no mitogen)",[2]; 50 μg/well in vitro,.20
same,"Lymphocyte Stimulation Index, PHA",[2]; 50 μg/well in vitro,.261
same,"Lymphocyte Stimulation Index, Con-A",[2]; 100 μg/well in vitro,.308
same,"Lymphocyte Stimulation Index, Control (no mitogen)",[2]; 100 μg/well in vitro,.20
same,"Lymphocyte Stimulation Index, PHA",[2]; 100 μg/well in vitro,.292
same,"mitogenesis, PHA and Con-A",[2]; 0.001-1.0 μg/well,significant stimulation of mitogenesis
same,response to PHA and Con-A,[2]; 5 and 10 μg/well,significant increases
same,lymphocyte response to the mitogens,[2]; 50 and 100 μg/well,significant decreases
same,"Lymphocyte Stimulation Index, Con-A",[2]; .001 μg/well in vitro,198
same,"Lymphocyte Stimulation Index, Control (no mitogen)",[2]; .001 μg/well in vitro,3.8
same,"Lymphocyte Stimulation Index, PHA",[2]; .001 μg/well in vitro,80.4
same,"Lymphocyte Stimulation Index, Con-A",[2]; .01 μg/well in vitro,198
same,"Lymphocyte Stimulation Index, Control (no mitogen)",[2]; .01 μg/well in vitro,3.2
same,"Lymphocyte Stimulation Index, PHA",[2]; .01 μg/well in vitro,87.5
same,"Lymphocyte Stimulation Index, Con-A",[2]; .1 μg/well in vitro,198
same,"Lymphocyte Stimulation Index, Control (no mitogen)",[2]; .1 μg/well in vitro,3.2
same,"Lymphocyte Stimulation Index, PHA",[2]; .1 μg/well in vitro,83.1
same,deaths or signs of toxicity,CD-1 mice; single oral 5 g/kg,No deaths or signs of toxicity
same,LD50,CD-1 mice; single oral dose,> 5000 mg/kg
same,deaths or signs of toxicity,CD rats; single oral 5 g/kg,No deaths or signs of toxicity
same,LD50,CD rats; single oral dose,> 5000 mg/kg
